Test results: patent US8536216B2, “Compositions based on aminoacids” (Professional Dietetics S.R.L., priority 2000, dated 2013)
Where two headings read alike, the source gives them in different places.

Legend:
[1] = human, in vivo
[2] = Amino acids plasma modifications induced by acute ingestion of the mixture
athletes = experiment: Comparative study in athletes: bench press, squat Romano, maximal power on braked bicycle ergometer; format: in vivo, human
Description: The effects on energy balance of the an amino acids mixture according to the invention as above indicated were the subject of a comparative study with creatine, on a weight ratio (w/w), or with no treatment, on a large group of volunteers submitted to a rigid protocol of alimentation and training.

[3] = 15' after acute ingestion of the mixture according to the invention
[4] = 30' after acute ingestion of the mixture according to the invention
[5] = 60' after acute ingestion of the mixture according to the invention

SMILES: N=C(N)NCCC[C@H](N)C(=O)O [Arginine]
- Amino acid plasma level ([1]; 15 min): 85 ± 15
- Amino acid plasma level ([1]; 30 min): 97 ± 13
- Amino acid plasma level ([1]; 60 min): 82 ± 16

SMILES: N[C@@H](Cc1ccc(O)cc1)C(=O)O [Tyrosine]
- Amino acid plasma level ([1]; 15 min): 62 ± 9
- Amino acid plasma level ([1]; 30 min): 65 ± 14
- Amino acid plasma level ([1]; 60 min): 59 ± 7

SMILES: N[C@@H](CCC(=O)O)C(=O)O [Glutamic acid]
- Amino acid plasma level [2, 3]: 42 ± 6
- Amino acid plasma level [2, 4]: 44 ± 7
- Amino acid plasma level [2, 5]: 41 ± 5

SMILES: CC(C)[C@H](N)C(=O)O [Valine]
- Amino acid plasma level ([1]; 15 min): 256 ± 19
- Amino acid plasma level ([1]; 30 min): 294 ± 32
- Amino acid plasma level ([1]; 60 min): 249 ± 26

SMILES: NCCCC[C@H](N)C(=O)O [Lysine]
- Amino acid plasma level ([1]; 15 min): 182 ± 17
- Amino acid plasma level ([1]; 30 min): 194 ± 26
- Amino acid plasma level ([1]; 60 min): 179 ± 18

SMILES: CN(CC(=O)O)C(=N)N [creatine]
- Watt/Kg max (maximal power productive performance on a braked bicycle ergometer) (athletes; after one month of treatment and training, mixture 24 g/d, creatine 25 g/d): 9.8 ± 0.6 watt/kg max
- Performances over basal and no treatment group (athletes; one month treatment and training): significant improvements of performances

SMILES: CSCC[C@H](N)C(=O)O [Methionine]
- Amino acid plasma level ([1]; 15 min): 30 ± 6
- Amino acid plasma level ([1]; 30 min): 32 ± 9
- Amino acid plasma level ([1]; 60 min): 27 ± 4

SMILES: CC[C@H](C)[C@H](N)C(=O)O [Isoleucine]
- Amino acid plasma level ([1]; 15 min): 156 ± 24
- Amino acid plasma level ([1]; 30 min): 162 ± 31
- Amino acid plasma level ([1]; 60 min): 147 ± 32

SMILES: N[C@@H](CS)C(=O)O [Cysteine]
- Amino acid plasma level ([1]; 15 min): 54 ± 6
- Amino acid plasma level ([1]; 30 min): 61 ± 8
- Amino acid plasma level ([1]; 60 min): 49 ± 7

SMILES: N[C@@H](CCC(=O)O)C(=O)O [Glutamate]
- Amino acid plasma level [2, 3]: 563 ± 69
- Amino acid plasma level [2, 4]: 606 ± 32
- Amino acid plasma level [2, 5]: 502 ± 43

SMILES: CC(C)C[C@H](N)C(=O)O [Leucine]
- Amino acid plasma level ([1]; 15 min): 68 ± 16
- Amino acid plasma level ([1]; 30 min): 109 ± 19
- Amino acid plasma level ([1]; 60 min): 71 ± 9

SMILES: C[C@@H](O)[C@H](N)C(=O)O [Threonine]
- Amino acid plasma level ([1]; 15 min): 121 ± 15
- Amino acid plasma level ([1]; 30 min): 137 ± 21
- Amino acid plasma level ([1]; 60 min): 120 ± 16

SMILES: N[C@@H](Cc1ccccc1)C(=O)O [Phenylalanine]
- Amino acid plasma level ([1]; 15 min): 56 ± 9
- Amino acid plasma level ([1]; 30 min): 61 ± 10
- Amino acid plasma level ([1]; 60 min): 55 ± 7
